≈ marks a conversion by molar mass, not a printed value. Structures can show the parent of a compound that is named as a salt. Where two headings read alike, the source gives them in different places. One block for each compound: values may come before it.
What was measured:
[1] = system: Staphylococcus aureus (S. aureus FDA209P); assay: Sensitivity Test 1: antibacterial activity (MIC) by micro-dilution method; type: cell-based
Method: (§1) Test compounds were initially dissolved in dimethylsulfoxide. Antibacterial activities (MICs) of the same compounds were determined by the micro-dilution method as recommended by the Japanese Society of Chemotherapy.
(§2) Staphylococcus aureus (S. aureus FDA209P) was used as the test organism. The bacterial cells were grown overnight at 35° C. on Mueller-Hinton agar (MHA) plates. The bacterial cells were then suspended in sterile saline and adjusted to the turbidity of a 0.5 McFarland standard. The inoculum was prepared by 10-fold dilution of this suspension. Approximately 0.005 mL aliquots of the inoculum prepared above were subsequently inoculated into Cation-adjusted Mueller-Hinton broth (CAMHB, 100 μL/well) including the test compounds for overnight incubation at 35° C.

[2] = system: Methicillin-resistant Staphylococcus aureus (S. aureus F-3095); assay: Sensitivity Test 2: antibacterial activity (MIC) by micro-dilution method; type: cell-based
Method: as §1, §2
Methicillin-resistant Staphylococcus aureus (S. aureus F-3095) was used as the test organism. Antibacterial activities (MICs) were determined in the same manner as in Test Example 1.

[3] = system: Vero cells; assay: Cytotoxicity Test (XTT) on Vero cells; type: cell-based; details: 51.2 μg/mL of test compound, 3 days at 37° C., XTT absorbance ratio of treated to untreated well
Method: Test compounds were initially dissolved in dimethylsulfoxide. […]. After incubation, absorbance was read at 450 nm and 655 nm in a spectrophotometric microplate reader. The values were expressed as the ratio between the value for the well treated with 51.2 μg/mL of each test compound and the value for the well untreated with the test compound (T/C).

[4] = system: S. aureus Smith; assay: Infection Test: mice infected intraperitoneally with S. aureus Smith; type: in vivo; details: ICR mice, 5 per group; S. aureus Smith i.p.; 10 mg/kg subcutaneously once at 1 hour after infection; survivors recorded 3 days after infection
Method: S. aureus Smith which was grown overnight at 37° C. on Mueller-Hinton agar (MHA) plates were suspended to give a final concentration of 10^9 CFU/mL. The inoculum was prepared by diluting this suspension 10-fold in 1/15 mol/L phosphate buffer (pH 7) containing 5.6% mucin. ICR mice (4 to 4.5 weeks of age, male, 5 mice per group) were intraperitoneally administered with the inoculum (approximately 2×10^7 CFU per mice) to induce infection.
After dissolving the test compounds in 0.1 mol/L hydrochloric acid, 20% 2-hydroxypropyl-β-cyclodextrin (HP-β-CD) or a mixture of 20% HP-β-CD and 0.1 mol/L hydrochloric acid at a proportion of 1:1 was added to give a final concentration of 1 mg/mL. Each of the test compound solutions (10 mg/kg) was subcutaneously administered once to a group of mice at 1 hour after infection. The control group was administered with 10% HP-β-CD. The mice were observed daily and the number of surviving mice in each group was recorded 3 days after infection.

[5] = S. aureus FDA209P, CAMHB, overnight incubation at 35° C., lowest concentration with virtually no growth, read-out: MIC
[6] = Methicillin-resistant S. aureus F-3095, same manner as in Test Example 1, read-out: MIC

MIC [1, 5]: 0.0156 µg/mL (≈ 0.0334 µM)
MIC [2, 6]: 0.0625 µg/mL (≈ 0.134 µM)
Compound: COc1ccc2ncc(=O)n(CCC3(O)CCC(NCc4cc5c(cn4)OCCO5)CC3)c2c1 (single isomer, unassigned) [389(B), 1-(2-(4-((2,3-dihydro(1,4)dioxino(2,3-c)pyridin-7-ylmethyl)amino)-1-hydroxycyclohexyl)ethyl)-7-methoxyquinoxalin-2(1H)-one]
T/C [3]: >50%

MIC [1, 5]: 0.25 µg/mL (≈ 0.499 µM)
Compound: COc1ccc2c(C)cc(=O)n(CCCC3(C(=O)O)CCN(CCSc4cccs4)CC3)c2c1 [Example 7, 4-(3-(7-methoxy-4-methyl-2-oxoquinolin-1(2H)-yl)propyl)-1-(2-(2-thienylthio)ethyl)piperidine-4-carboxylic acid]
T/C [3]: >50%

Compound: CNC(=O)c1cc(=O)n(CCN2CCC(NCc3ccc4c(c3)OCCO4)CC2)c2cc(OC)ccc12 [Example 25, 1-(2-(4-((2,3-dihydro-1,4-benzodioxin-6-ylmethyl)amino)piperidin-1-yl)ethyl)-7-methoxy-N-methyl-2-oxo-1,2-dihydroquinoline-4-carboxamide]
MIC [1, 5]: 0.0625 µg/mL (≈ 0.123 µM)
MIC [2, 6]: 0.125 µg/mL (≈ 0.247 µM)
T/C [3]: >50%
Number of surviving mice [4]: 5

MIC [1, 5]: 0.0625 µg/mL
Compound: O=c1ccc2ccccc2n1CCN1CCC(NCc2ccc3c(c2)OCCO3)CC1 [Example 63, 1-(2-(4-(2,3-dihydro-1,4-benzodioxin-6-ylmethyl)amino)piperidin-1-yl)ethyl)-quinolin-2(1H)one hydrochloride]
T/C [3]: >50%

Compound: COc1ccc2ncc(=O)n(CCN3CCC(NCc4ccc5c(c4)NC(=O)CO5)CC3)c2c1 [Example 90, 6-(((1-(2-(7-methoxy-2-oxoquinoxaline-1-(2H)-yl)ethyl)piperidin-4-yl)amino)methyl)-2H-1,4-benzooxazine-3(4H)-one]
MIC [1, 5]: 0.0313 µg/mL (≈ 0.0675 µM)
MIC [2, 6]: 0.0625 µg/mL (≈ 0.135 µM)
T/C [3]: >50%
Number of surviving mice [4]: 5

Compound: COCCNC(=O)c1cc(=O)n(CCN2CCC(NCc3ccc4c(c3)OCCO4)CC2)c2cc(OC)ccc12 [Example 141, 1-(2-(4-((2,3-dihydro-1,4-benzodioxin-6-ylmethyl)amino)piperidin-1-yl)ethyl)-7-methoxy-N-(2-methoxyethyl)-2-oxo-1,2-dihydroquinoline-4-carboxamide hydrochloride]
MIC ([1]; FDA209P): 0.125 µg/mL
MIC [2]: 0.25 µg/mL
T/C [3]: >50%
Number of surviving mice [4]: 5

Compound: Nc1cccc2c1ccc(=O)n2CCN1CCC(NCc2ccc3c(c2)OCCO3)CC1 [Example 263, 1-(2-(4-((2,3-dihydro-1,4-benzodioxin-6-ylmethyl)amino)piperidin-1-yl)ethyl)-5-aminoquinolin-2(1H)-one hydrochloride]
MIC ([1]; FDA209P): 0.125 µg/mL
MIC [2]: 0.25 µg/mL
T/C [3]: >50%
Number of surviving mice [4]: 5

Compound: CNC(=O)c1cc(=O)n(CCN2CCC(NCc3ccc(C)c(F)c3)CC2)c2cc(OC)ccc12 [Example 340, 1-(2-(4-(3-fluoro-4-methylbenzylamino)piperidin-1-yl)ethyl)-7-methoxy-N-methyl-2-oxo-1,2-dihydroquinoline-4-carboxamide hydrochloride]
MIC ([1]; FDA209P): 0.0313 µg/mL
MIC [2]: 0.0625 µg/mL
T/C [3]: >50%
Number of surviving mice [4]: 5

Compound: CNC(=O)c1cc(=O)n(CCN2CCC(NCc3cc(-c4cccs4)on3)CC2)c2cc(OC)ccc12 [Example 341, 7-methoxy-N-methyl-2-oxo-1-(2-(4-((5-(thiophen-2-yl)isoxazol-3-yl)methylamino)piperidin-1-yl)ethyl)-1,2-dihydroquinoline-4-carboxamide hydrochloride]
MIC ([1]; FDA209P): 0.0313 µg/mL
MIC [2]: 0.0625 µg/mL
T/C [3]: >50%
Number of surviving mice [4]: 5

Compound: O=c1cnc2ccc(F)cc2n1CCN1CCC(NCc2cc3c(cn2)OCCO3)CC1 [Example 352, 1-(2-(4-((2,3-dihydro-1,4-dioxino[2,3-c]pyridin-7-yl)methylamino)piperidin-1-yl)ethyl)-7-fluoroquinoxalin-2(1H)-one hydrochloride]
MIC ([1]; FDA209P): 0.0156 µg/mL
MIC [2]: 0.0313 µg/mL
T/C [3]: >50%
Number of surviving mice [4]: 5

Compound: COc1ccc2ncc(=O)n(CCN3CCC(NCc4cc5c(cn4)OCCO5)CC3)c2c1 [Example 359, 1-(2-(4-((2,3-dihydro-1,4-dioxino[2,3-c]pyridin-7-yl)methylamino)piperidin-1-yl)ethyl)-7-methoxy-quinoxalin-2(1H)-one hydrochloride]
MIC ([1]; FDA209P): 0.0313 µg/mL
MIC [2]: 0.0313 µg/mL
T/C [3]: >50%
Number of surviving mice [4]: 5

Compound: Cc1ccc(CNC2CCN(CCn3c(=O)cnc4ccc(F)cc43)CC2)cc1F [Example 367, 1-(2-(4-((3-fluoro-4-methylbenzyl)amino)piperidin-1-yl)ethyl)-7-fluoroquinoxalin-2(1H)-one hydrochloride]
MIC ([1]; FDA209P): 0.0156 µg/mL
MIC [2]: 0.0156 µg/mL
T/C [3]: >50%
Number of surviving mice [4]: 5

Compound: O=C1CSc2ccc(CNC3CCN(CCn4c(=O)cnc5ccc(F)cc54)CC3)nc2N1 [Example 369, 7-fluoro-1-(2-(4-((3-oxo-3,4-dihydro-2H-pyrido[3,2-b][1,4]thiazin-6-yl)methylamino)piperidin-1-yl)ethyl)quinoxalin-2(1H)-one hydrochloride]
MIC ([1]; FDA209P): 0.0313 µg/mL
MIC [2]: 0.0313 µg/mL
T/C [3]: >50%
Number of surviving mice [4]: 5

Reference: patent US8524738B2, “Quinolinones and quinoxalinones as antibacterial composition” (Toyama Chemical Co., Ltd., priority 2005, dated 2013)
